Patent US20230364070A1, “PYRROLO[3,2-C]PYRIDIN-4-ONE DERIVATIVES USEFUL IN THE TREATMENT OF CANCER” (Scorpion Therapeutics, Inc., priority 2020, published 2023)

Tests used:
Format in all cases: cell-based
[1] = target: T1, Ba/F3 cells with EGFR exon 20 NPG Ins D770_N771 (Homo sapiens, UniProt P00533, INS770NPG); assay: EGFR activity: Ba/F3 cell viability (CellTiter-Glo, 72 h), EGFR exon 20 NPG insertion; details: EGFR exon 20 NPG Ins D770_N771, cell viability, read-out: BaF3 NPG IC50
T1 construct: expressed in transfected cells; host or cells: Ba/F3 (murine pro-B cells), retroviral transduction, puromycin selection, IL3-independent pool

pEGFR in CUTO14 cells = target: T2, pEGFR in CUTO14 cells (Homo sapiens, UniProt P00533, DUP767-769); assay: Inhibitor activity on EGFR phosphorylation (pEGFR AlphaLISA, 2 h), CUTO14 cells
T2 construct: endogenous in cells; host or cells: CUTO14 cells
Method: CUTO14 cells were obtained from Dr. Robert C. Doebele at the University of Colorado.
Shake 350 rpm for 1 hr in the dark • 3.4 Prepare donor mix under low light conditions prior to use. Dispense 5 μL of donor mix to all the wells. Mix well on the shaker, seal and wrap in aluminum foil and incubate 1.5 hrs at room temperature in the dark • 3.5 Transfer 18.5 μL mixture to OptiPlate 384, and read using an Envision.

Ba/F3 cells with EGFR WT = target: T3, Ba/F3 cells with EGFR WT (Homo sapiens, UniProt P00533); assay: EGFR activity: Ba/F3 cell viability (CellTiter-Glo, 72 h), EGFR WT; details: read-out: BaF3 WT IC50
T3 construct: expressed in transfected cells; host or cells: Ba/F3 (murine pro-B cells), retroviral transduction, puromycin selection, maintained with EGF

[2] = target: T4, Ba/F3 cells with EGFR exon 20 ASV Ins V769_D770 (Homo sapiens, UniProt P00533, INS769ASV); assay: EGFR activity: Ba/F3 cell viability (CellTiter-Glo, 72 h), EGFR exon 20 ASV insertion; details: EGFR exon 20 ASV Ins V769_D770, cell viability, read-out: BaF3 ASV IC50
T4 construct: expressed in transfected cells; host or cells: Ba/F3 (murine pro-B cells), retroviral transduction, puromycin selection, IL3-independent pool
T4 sequence (P00533 with tags, fused parts or gaps INS769ASV): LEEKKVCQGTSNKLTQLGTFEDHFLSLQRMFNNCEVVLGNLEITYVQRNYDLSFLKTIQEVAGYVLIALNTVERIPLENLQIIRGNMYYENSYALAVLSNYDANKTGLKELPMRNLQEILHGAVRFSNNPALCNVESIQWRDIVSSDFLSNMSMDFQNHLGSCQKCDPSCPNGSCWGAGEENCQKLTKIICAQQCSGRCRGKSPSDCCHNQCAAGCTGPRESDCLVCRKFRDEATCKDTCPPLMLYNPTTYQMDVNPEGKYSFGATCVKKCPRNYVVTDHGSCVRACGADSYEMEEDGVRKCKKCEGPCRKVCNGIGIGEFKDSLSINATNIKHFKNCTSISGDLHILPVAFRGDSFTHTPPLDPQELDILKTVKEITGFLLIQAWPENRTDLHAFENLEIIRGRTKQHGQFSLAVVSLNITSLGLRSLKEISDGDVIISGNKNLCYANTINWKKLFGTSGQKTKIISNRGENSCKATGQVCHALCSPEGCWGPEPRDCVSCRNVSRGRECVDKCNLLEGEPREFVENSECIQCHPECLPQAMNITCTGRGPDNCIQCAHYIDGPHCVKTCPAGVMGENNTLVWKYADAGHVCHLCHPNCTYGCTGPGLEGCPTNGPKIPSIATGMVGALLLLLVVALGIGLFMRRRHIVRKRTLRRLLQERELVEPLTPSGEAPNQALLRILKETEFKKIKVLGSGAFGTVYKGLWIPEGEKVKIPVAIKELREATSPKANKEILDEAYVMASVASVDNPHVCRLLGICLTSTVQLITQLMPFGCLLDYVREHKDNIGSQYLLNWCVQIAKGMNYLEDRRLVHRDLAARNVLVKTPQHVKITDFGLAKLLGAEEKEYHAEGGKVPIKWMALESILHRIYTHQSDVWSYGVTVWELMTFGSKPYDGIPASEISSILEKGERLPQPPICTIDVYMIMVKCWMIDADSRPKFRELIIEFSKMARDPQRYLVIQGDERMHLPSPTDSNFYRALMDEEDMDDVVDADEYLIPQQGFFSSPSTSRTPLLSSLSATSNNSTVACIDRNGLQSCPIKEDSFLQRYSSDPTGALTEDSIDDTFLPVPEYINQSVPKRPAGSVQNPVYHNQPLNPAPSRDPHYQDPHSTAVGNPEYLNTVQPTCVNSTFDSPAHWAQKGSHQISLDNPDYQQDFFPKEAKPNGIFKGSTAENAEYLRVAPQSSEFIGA

T2 sequence (P00533 with tags, fused parts or gaps DUP767-769): as the sequence (P00533 with tags, fused parts or gaps INS769ASV) above
T3 sequence (P00533 25-1210): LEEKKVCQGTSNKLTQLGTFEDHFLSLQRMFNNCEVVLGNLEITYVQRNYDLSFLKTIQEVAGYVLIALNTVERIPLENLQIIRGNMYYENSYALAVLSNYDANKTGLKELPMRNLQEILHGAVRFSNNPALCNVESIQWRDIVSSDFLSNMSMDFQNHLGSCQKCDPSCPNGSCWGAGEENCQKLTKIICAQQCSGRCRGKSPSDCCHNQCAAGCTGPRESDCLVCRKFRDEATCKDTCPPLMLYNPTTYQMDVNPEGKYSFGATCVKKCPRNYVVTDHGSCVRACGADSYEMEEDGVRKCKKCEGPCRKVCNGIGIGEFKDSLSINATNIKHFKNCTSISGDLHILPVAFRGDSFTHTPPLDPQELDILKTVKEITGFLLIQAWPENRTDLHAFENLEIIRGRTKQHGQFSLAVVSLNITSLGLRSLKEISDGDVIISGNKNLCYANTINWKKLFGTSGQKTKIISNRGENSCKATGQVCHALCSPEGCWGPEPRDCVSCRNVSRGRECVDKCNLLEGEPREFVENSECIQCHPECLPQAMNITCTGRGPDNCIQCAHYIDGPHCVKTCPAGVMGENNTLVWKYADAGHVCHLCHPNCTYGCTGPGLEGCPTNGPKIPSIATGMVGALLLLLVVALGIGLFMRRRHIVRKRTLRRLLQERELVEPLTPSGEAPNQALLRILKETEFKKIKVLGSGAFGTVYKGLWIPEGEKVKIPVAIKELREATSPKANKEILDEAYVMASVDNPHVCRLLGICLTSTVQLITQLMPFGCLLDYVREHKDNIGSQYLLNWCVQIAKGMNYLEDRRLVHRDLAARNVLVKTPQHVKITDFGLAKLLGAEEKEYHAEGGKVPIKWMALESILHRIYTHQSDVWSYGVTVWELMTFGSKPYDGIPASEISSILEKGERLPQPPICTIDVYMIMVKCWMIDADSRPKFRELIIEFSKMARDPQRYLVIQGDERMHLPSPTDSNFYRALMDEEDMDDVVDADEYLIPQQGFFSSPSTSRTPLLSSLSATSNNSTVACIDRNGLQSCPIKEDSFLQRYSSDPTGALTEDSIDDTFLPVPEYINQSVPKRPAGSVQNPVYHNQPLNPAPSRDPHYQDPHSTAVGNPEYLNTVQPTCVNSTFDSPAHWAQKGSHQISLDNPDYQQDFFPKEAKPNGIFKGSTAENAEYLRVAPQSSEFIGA
T1 sequence (P00533 with tags, fused parts or gaps INS770NPG): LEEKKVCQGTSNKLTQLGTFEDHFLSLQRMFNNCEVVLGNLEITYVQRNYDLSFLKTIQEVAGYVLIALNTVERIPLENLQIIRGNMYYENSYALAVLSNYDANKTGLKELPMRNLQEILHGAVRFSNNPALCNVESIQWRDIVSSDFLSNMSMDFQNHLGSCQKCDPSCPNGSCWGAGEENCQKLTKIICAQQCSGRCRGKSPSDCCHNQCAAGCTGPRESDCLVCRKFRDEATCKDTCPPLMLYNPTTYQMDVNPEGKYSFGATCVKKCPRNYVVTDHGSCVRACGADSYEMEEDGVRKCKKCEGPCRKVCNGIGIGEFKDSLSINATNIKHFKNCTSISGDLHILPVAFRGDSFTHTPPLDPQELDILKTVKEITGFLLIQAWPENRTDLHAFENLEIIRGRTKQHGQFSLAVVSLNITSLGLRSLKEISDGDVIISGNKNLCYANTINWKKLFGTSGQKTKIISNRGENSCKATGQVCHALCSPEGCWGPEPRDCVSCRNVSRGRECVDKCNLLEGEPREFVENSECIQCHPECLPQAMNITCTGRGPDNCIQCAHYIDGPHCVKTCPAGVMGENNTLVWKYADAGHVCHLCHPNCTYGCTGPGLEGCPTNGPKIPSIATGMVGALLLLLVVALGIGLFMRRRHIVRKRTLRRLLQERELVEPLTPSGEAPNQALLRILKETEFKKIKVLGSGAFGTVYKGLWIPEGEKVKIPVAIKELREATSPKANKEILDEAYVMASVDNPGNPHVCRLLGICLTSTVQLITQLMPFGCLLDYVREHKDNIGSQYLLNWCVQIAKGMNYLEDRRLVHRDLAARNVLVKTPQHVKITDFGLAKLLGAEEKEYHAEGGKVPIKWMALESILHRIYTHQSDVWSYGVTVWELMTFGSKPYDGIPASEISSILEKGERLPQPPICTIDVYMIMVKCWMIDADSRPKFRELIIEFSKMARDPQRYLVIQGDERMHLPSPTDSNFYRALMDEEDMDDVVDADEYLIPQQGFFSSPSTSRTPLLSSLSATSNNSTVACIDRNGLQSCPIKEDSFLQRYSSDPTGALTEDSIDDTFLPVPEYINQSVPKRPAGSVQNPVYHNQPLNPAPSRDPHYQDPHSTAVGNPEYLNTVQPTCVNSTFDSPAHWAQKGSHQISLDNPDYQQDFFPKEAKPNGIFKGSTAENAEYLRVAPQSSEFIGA

IC50 (pEGFR in CUTO14 cells) [nM] | Structure (SMILES) | IC50 [1] [nM] | IC50 (Ba/F3 cells with EGFR WT) [nM] | IC50 [2] [nM]
< 100 | CC#CC(=O)N1CC[C@]1(C)COc1cnccc1-c1[nH]c2c(c1Nc1cccc(F)c1OC)C(=O)NCC2 [compound 307] | < 100 | 100 to 1000 | < 100
< 100 | CC#CC(=O)N1CC[C@@H]1COc1cnccc1-c1[nH]c2c(c1Nc1cc(F)cc(F)c1OC)C(=O)NCC2 [compound 347] | < 100 | 100 to 1000 | < 100
< 100 | CC#CC(=O)N1CC[C@@H]1COc1cnccc1-c1[nH]c2c(c1Nc1cccc(F)c1F)C(=O)NCC2 [compound 350] | < 100 | 100 to 1000 | < 100
100 to 1000 | CC#CC(=O)N1CC[C@@]1(C)COc1cnccc1-c1[nH]c2c(c1Nc1cccc(F)c1OC)C(=O)NCC2 [compound 357] | 100 to 1000 | > 1000 | 100 to 1000
< 100 | CC#CC(=O)N1CC[C@@H]1C#Cc1cnccc1-c1[nH]c2c(c1Nc1cccc(F)c1OC)C(=O)NCC2 [compound 373] | < 100 | < 100 | < 100
< 100 | C=CC(=O)NC1(C#Cc2cnccc2-c2[nH]c3c(c2Nc2cccc(Cl)c2OC)C(=O)NCC3)CCOCC1 [compound 382] | < 100 | 100 to 1000 | < 100
100 to 1000 | C=CC(=O)NC1(C#Cc2cnccc2-c2[nH]c3c(c2Nc2cccc(F)c2OC)C(=O)NCC3)CCOCC1 [compound 383] | < 100 | > 1000 | 100 to 1000
< 100 | C=CC(=O)NC(C)(C)C#Cc1cnccc1-c1[nH]c2c(c1Nc1cccc(F)c1C)C(=O)NCC2 [compound 385] | < 100 | < 100 | < 100
< 100 | COc1c(Cl)cccc1Nc1c(-c2ccncc2C#CC(C)(C)NC(=O)/C=C/CN(C)C)[nH]c2c1C(=O)NCC2 [compound 388] | < 100 | 100 to 1000 | < 100
100 to 1000 | COc1c(F)cccc1Nc1c(-c2ccncc2C#CC(C)(C)NC(=O)/C=C/CN2CCOCC2)[nH]c2c1C(=O)NCC2 [compound 391] | 100 to 1000 | > 1000 | 100 to 1000
< 100 | COc1c(F)cccc1Nc1c(-c2ccncc2C#CC(C)(C)NC(=O)/C=C/CN2CCCC2)[nH]c2c1C(=O)NCC2 [compound 392] | < 100 | 100 to 1000 | < 100
< 100 | COc1c(F)cccc1Nc1c(-c2ccncc2C#CC(C)(C)NC(=O)/C=C/CN2CC(OC)C2)[nH]c2c1C(=O)NCC2 [compound 393] | < 100 | 100 to 1000 | < 100
100 to 1000 | COc1c(F)cccc1Nc1c(-c2ccncc2C#CC(C)(C)NC(=O)/C=C/CN[C@@H]2CCOC2)[nH]c2c1C(=O)NCC2 [compound 394] | 100 to 1000 | > 1000 | 100 to 1000
< 100 | C=CC(=O)NC1(C#Cc2cnccc2-c2[nH]c3c(c2Nc2cccc(Cl)c2OC)C(=O)NCC3)CC(F)(F)C1 [compound 400] | < 100 | 100 to 1000 | < 100
< 100 | C=CC(=O)NC1(C#Cc2cnccc2-c2[nH]c3c(c2Nc2cccc(F)c2OC)C(=O)NCC3)CC(F)(F)C1 [compound 401] | < 100 | 100 to 1000 | < 100
< 100 | CC#CC(=O)N1CC[C@@H]1COc1cnccc1-c1[nH]c2c(c1Nc1cccc(F)c1Cl)C(=O)NCC2 [compound 406] | < 100 | < 100 | < 100
100 to 1000 | C=CC(=O)NC1(C#Cc2cnccc2-c2[nH]c3c(c2Nc2cccc(Cl)c2OC)C(=O)NCC3)CCN(C)CC1 [compound 411] | 100 to 1000 | > 1000 | 100 to 1000
100 to 1000 | COc1c(F)cccc1Nc1c(-c2ccncc2C#CC2(NC(=O)/C=C/CN(C)C)COC2)[nH]c2c1C(=O)NCC2 [compound 417] | 100 to 1000 | > 1000 | 100 to 1000

More lines, now with the values behind:

Structure (SMILES) | IC50 (pEGFR in CUTO14 cells) [nM] | IC50 [1] [nM] | IC50 (Ba/F3 cells with EGFR WT) [nM] | IC50 [2] [nM]
C=CC(=O)N1CCC[C@]1(C)C#Cc1cnccc1-c1[nH]c2c(c1Nc1cccc(F)c1CC)C(=O)NCC2 [compound 305] | < 100 | < 100 | 100 to 1000 | < 100
CC#CC(=O)N1CC[C@]1(C)COc1cnccc1-c1[nH]c2c(c1Nc1cccc(Cl)c1OC)C(=O)NCC2 [compound 308] | < 100 | < 100 | 100 to 1000 | < 100
C=CC(=O)NC1(C#Cc2cnccc2-c2[nH]c3c(c2Nc2cccc(F)c2OC)C(=O)NCC3)CN(C)C1 [compound 336] | 100 to 1000 | 100 to 1000 | > 1000 | 100 to 1000
CC#CC(=O)N1CC[C@@H]1COc1cnccc1-c1[nH]c2c(c1Nc1cc(F)cc(Cl)c1OC)C(=O)NCC2 [compound 346] | < 100 | < 100 | 100 to 1000 | < 100
CC#CC(=O)N1CC[C@@]1(C)COc1cnccc1-c1[nH]c2c(c1Nc1cccc(Cl)c1OC)C(=O)NCC2 [compound 358] | 100 to 1000 | 100 to 1000 | > 1000 | 100 to 1000
C=C(F)C(=O)N1CC[C@@H]1COc1cnccc1-c1[nH]c2c(c1Nc1cc(F)cc(F)c1OC)C(=O)NCC2 [compound 365] | 100 to 1000 | 100 to 1000 | 100 to 1000 | 100 to 1000
CC#CC(=O)N1CC[C@H]1C#Cc1cnccc1-c1[nH]c2c(c1Nc1cccc(F)c1OC)C(=O)NCC2 [compound 374] | < 100 | < 100 | 100 to 1000 | < 100
C=CC(=O)N[C@@]1(C#Cc2cnccc2-c2[nH]c3c(c2Nc2cccc(F)c2C)C(=O)NCC3)CCOC1 [compound 386] | < 100 | < 100 | 100 to 1000 | < 100
C=CC(=O)N[C@]1(C#Cc2cnccc2-c2[nH]c3c(c2Nc2cccc(F)c2C)C(=O)NCC3)CCOC1 [compound 387] | < 100 | < 100 | 100 to 1000 | < 100
C=C(F)C(=O)NC(C)(C)C#Cc1cnccc1-c1[nH]c2c(c1Nc1cccc(F)c1OC)C(=O)NCC2 [compound 389] | < 100 | < 100 | 100 to 1000 | < 100
C=C(F)C(=O)NC(C)(C)C#Cc1cnccc1-c1[nH]c2c(c1Nc1cccc(Cl)c1OC)C(=O)NCC2 [compound 390] | < 100 | < 100 | 100 to 1000 | < 100
COc1c(F)cccc1Nc1c(-c2ccncc2C#CC(C)(C)NC(=O)/C=C/CN[C@H]2CCOC2)[nH]c2c1C(=O)NCC2 [compound 395] | 100 to 1000 | 100 to 1000 | > 1000 | 100 to 1000
CC#CC(=O)N1CC[C@@H]1COc1cnccc1-c1[nH]c2c(c1Nc1cccc(Cl)c1F)C(=O)NCC2 [compound 407] | < 100 | < 100 | < 100 | < 100
COc1c(Cl)cccc1Nc1c(-c2ccncc2C#CC2(NC(=O)/C=C/CN(C)C)COC2)[nH]c2c1C(=O)NCC2 [compound 416] | < 100 | 100 to 1000 | > 1000 | 100 to 1000
